Common to all, as to format: functional
Assay [1] has as its system Staphylococcus aureus. Briefly: Antibacterial activity against Staphylococcus aureus assessed as inhibition of bacterial growth.
Assay [2] has as its system Staphylococcus aureus. Briefly: Antibacterial activity against methicillin resistant Staphylococcus aureus N315 assessed as inhibition of bacterial growth.
In another assay the test system is Enterococcus faecalis. Kind of assay: Antibacterial activity against Enterococcus faecalis assessed as inhibition of bacterial growth.
For assay [3], the system named is Staphylococcus aureus. Briefly: Antibacterial activity against Staphylococcus aureus ATCC 25923 assessed as inhibition of bacterial growth.
For assay [4], the system named is Staphylococcus aureus. Kind of assay: Antibacterial activity against Staphylococcus aureus ATCC 29213 assessed as inhibition of bacterial growth.
The next assay concerns Klebsiella pneumoniae. Kind of assay: Antibacterial activity against Klebsiella pneumoniae assessed as inhibition of bacterial growth.
Assay [5] deals with Escherichia coli. Kind of assay: Antibacterial activity against Escherichia coli assessed as inhibition of bacterial growth.
Assay [6] relates to Escherichia coli. Kind of assay: Antibacterial activity against Escherichia coli ATCC 25922 assessed as inhibition of bacterial growth.
Assay [7] deals with Pseudomonas aeruginosa. Briefly: Antibacterial activity against Pseudomonas aeruginosa assessed as inhibition of bacterial growth.
The test system of assay [8] is Pseudomonas aeruginosa. Kind of assay: Antibacterial activity against Pseudomonas aeruginosa ATCC 27853 assessed as inhibition of bacterial growth.
In another assay the test system is Acinetobacter baumannii. Kind of assay: Antibacterial activity against Acinetobacter baumannii assessed as inhibition of bacterial growth.

Converted amounts (≈) assume the structure as drawn.

The source of these data is ChEMBL document CHEMBL5131495, “Discovery of unique thiazolidinone-conjugated coumarins as novel broad spectrum antibacterial agents” (Eur J Med Chem, 2022).

As for `Cc1cc(=O)oc2cc(/N=C3/S/C(=C\c4ccc(F)cc4)C(=O)N3CCO)ccc12`, the minimal inhibitory concentration (MIC) with Staphylococcus aureus [1] was 64 µg/mL (≈ 151 µM); in the assay with Staphylococcus aureus [2] it was 64 µg/mL (≈ 151 µM); in the assay on Enterococcus faecalis, 32 µg/mL (≈ 75.4 µM); in the assay on Staphylococcus aureus [3] it was 128 µg/mL (≈ 302 µM); with Staphylococcus aureus [4], 16 µg/mL (≈ 37.7 µM); in the assay on Klebsiella pneumoniae it was 256 µg/mL (≈ 603 µM). The MIC was determined as 128 µg/mL (≈ 302 µM) with Escherichia coli [5]; 128 µg/mL (≈ 302 µM) in the assay on Escherichia coli [6]; 32 µg/mL (≈ 75.4 µM) in the assay on Pseudomonas aeruginosa [7]; 64 µg/mL (≈ 151 µM) in the assay with Pseudomonas aeruginosa [8]; 4 µg/mL (≈ 9.42 µM) with Acinetobacter baumannii.

As for `Cc1cc(=O)oc2cc(/N=C3/S/C(=C\c4ccc(Cl)cc4Cl)C(=O)N3CCO)ccc12`, the minimum inhibitory concentration (MIC) in the assay with Staphylococcus aureus [1] amounted to 256 µg/mL (≈ 539 µM); in the assay with Staphylococcus aureus [2], 32 µg/mL (≈ 67.3 µM); in the assay on Enterococcus faecalis, 128 µg/mL (≈ 269 µM); in the assay with Staphylococcus aureus [3] it was 128 µg/mL (≈ 269 µM); in the assay with Staphylococcus aureus [4], 128 µg/mL (≈ 269 µM); with Klebsiella pneumoniae, 64 µg/mL (≈ 135 µM). The MIC in the assay with Escherichia coli [5] stood at 256 µg/mL (≈ 539 µM); in the assay with Escherichia coli [6], 256 µg/mL (≈ 539 µM); with Pseudomonas aeruginosa [7], 64 µg/mL (≈ 135 µM); with Pseudomonas aeruginosa [8], 128 µg/mL (≈ 269 µM); with Acinetobacter baumannii it was 4 µg/mL (≈ 8.41 µM).

Turning to `Cc1cc(=O)oc2cc(/N=C3/S/C(=C\c4ccc(C#N)cc4)C(=O)N3CCO)ccc12`, the MIC worked out at 1 µg/mL (≈ 2.32 µM) in the assay with Staphylococcus aureus [1]; 2 µg/mL (≈ 4.64 µM) in the assay with Staphylococcus aureus [2]; 4 µg/mL (≈ 9.27 µM) in the assay with Enterococcus faecalis; 8 µg/mL (≈ 18.5 µM) in the assay on Staphylococcus aureus [3]; 128 µg/mL (≈ 297 µM) with Staphylococcus aureus [4]; 128 µg/mL (≈ 297 µM) with Klebsiella pneumoniae. Further, the MIC stood at 256 µg/mL (≈ 593 µM) with Escherichia coli [5]; 256 µg/mL (≈ 593 µM) with Escherichia coli [6]; 128 µg/mL (≈ 297 µM) in the assay on Pseudomonas aeruginosa [7]; 256 µg/mL (≈ 593 µM) in the assay with Pseudomonas aeruginosa [8]; 0.5 µg/mL (≈ 1.16 µM) with Acinetobacter baumannii.

Consider `CCCCc1nc(Cl)c(/C=C2\S/C(=N/c3ccc4c(C)cc(=O)oc4c3)N(CCO)C2=O)[nH]1`, for which the MIC with Staphylococcus aureus [1] was found to be 8 µg/mL (≈ 16.4 µM); in the assay on Staphylococcus aureus [2], 128 µg/mL (≈ 263 µM); in the assay with Enterococcus faecalis it was 128 µg/mL (≈ 263 µM); with Staphylococcus aureus [3] it was 128 µg/mL (≈ 263 µM); in the assay with Staphylococcus aureus [4] it was 64 µg/mL (≈ 131 µM); in the assay with Klebsiella pneumoniae, 64 µg/mL (≈ 131 µM). In addition, the MIC in the assay with Escherichia coli [5] was 32 µg/mL (≈ 65.7 µM); in the assay with Escherichia coli [6] it was 64 µg/mL (≈ 131 µM); with Pseudomonas aeruginosa [7], 256 µg/mL (≈ 526 µM); with Pseudomonas aeruginosa [8], 256 µg/mL (≈ 526 µM); in the assay with Acinetobacter baumannii, 64 µg/mL (≈ 131 µM).

Consider `Cc1cc(=O)oc2cc(/N=C3/S/C(=C\c4ccc[nH]4)C(=O)N3CCO)ccc12`, for which the MIC with Staphylococcus aureus [1] is 64 µg/mL (≈ 162 µM); in the assay on Staphylococcus aureus [2], 64 µg/mL (≈ 162 µM); in the assay on Enterococcus faecalis, 128 µg/mL (≈ 324 µM); in the assay on Staphylococcus aureus [3], 128 µg/mL (≈ 324 µM); in the assay on Staphylococcus aureus [4], 64 µg/mL (≈ 162 µM); in the assay on Klebsiella pneumoniae it was 64 µg/mL (≈ 162 µM). Also, the MIC in the assay on Escherichia coli [5] came to 2 µg/mL (≈ 5.06 µM); in the assay on Escherichia coli [6] it was 128 µg/mL (≈ 324 µM); in the assay on Pseudomonas aeruginosa [7] it was 256 µg/mL (≈ 647 µM); with Pseudomonas aeruginosa [8], 32 µg/mL (≈ 80.9 µM); in the assay with Acinetobacter baumannii, 4 µg/mL (≈ 10.1 µM).

On to `Cc1cc(=O)oc2cc(/N=C3/S/C(=C\c4ccc(Cl)cc4)C(=O)N3CCO)ccc12`, for which the MIC with Staphylococcus aureus [1] is 128 µg/mL (≈ 290 µM); in the assay with Staphylococcus aureus [2] it was 16 µg/mL (≈ 36.3 µM); in the assay on Enterococcus faecalis, 128 µg/mL (≈ 290 µM); with Staphylococcus aureus [3] it was 8 µg/mL (≈ 18.1 µM); in the assay on Staphylococcus aureus [4] it was 4 µg/mL (≈ 9.07 µM); in the assay with Klebsiella pneumoniae, 128 µg/mL (≈ 290 µM). The minimum inhibitory concentration (MIC) came to 64 µg/mL (≈ 145 µM) with Escherichia coli [5]; 2 µg/mL (≈ 4.54 µM) in the assay with Escherichia coli [6]; 2 µg/mL (≈ 4.54 µM) with Pseudomonas aeruginosa [7]; 8 µg/mL (≈ 18.1 µM) with Pseudomonas aeruginosa [8]; 32 µg/mL (≈ 72.6 µM) with Acinetobacter baumannii.
